Read-outs that look alike come from different tables or passages of the source.
Tests used:
[1] = rats
Source text: (§1) ALZET® osmotic minipumps are described in Perkins L, Peer C, and Murphy-Hackley P. “Chapter 21: The use of mini-osmotic pumps in continuous infusion studies” in Handbook of Pre-Clinical Continuous Intravenous Infusion, (Smith & Healing, eds., Taylor and Francis, 2000), the contents of which are incorporated herein by reference.
ALZET® pumps groups were weighed on the first and last day of the study. The oral administered groups were weighed on the first day and also on day 6 and 13 of the study.

MAO-B = MAO-B (Rattus norvegicus, UniProt P19643); experiment: in vivo; details: for MAO-B activity, brain / MAO-B activity, intestine / MAO-B activity, liver: two weeks; for inhibition at 0.02 mg/kg/day / inhibition at 0.4 mg/kg/day / inhibition at 0.8 mg/kg/day / inhibition at 0.05 mg/kg/day / inhibition at 0.1 mg/kg/day / inhibition at 0.2 mg/kg/day: rat
Sequence of MAO-B (P19643 whole entry): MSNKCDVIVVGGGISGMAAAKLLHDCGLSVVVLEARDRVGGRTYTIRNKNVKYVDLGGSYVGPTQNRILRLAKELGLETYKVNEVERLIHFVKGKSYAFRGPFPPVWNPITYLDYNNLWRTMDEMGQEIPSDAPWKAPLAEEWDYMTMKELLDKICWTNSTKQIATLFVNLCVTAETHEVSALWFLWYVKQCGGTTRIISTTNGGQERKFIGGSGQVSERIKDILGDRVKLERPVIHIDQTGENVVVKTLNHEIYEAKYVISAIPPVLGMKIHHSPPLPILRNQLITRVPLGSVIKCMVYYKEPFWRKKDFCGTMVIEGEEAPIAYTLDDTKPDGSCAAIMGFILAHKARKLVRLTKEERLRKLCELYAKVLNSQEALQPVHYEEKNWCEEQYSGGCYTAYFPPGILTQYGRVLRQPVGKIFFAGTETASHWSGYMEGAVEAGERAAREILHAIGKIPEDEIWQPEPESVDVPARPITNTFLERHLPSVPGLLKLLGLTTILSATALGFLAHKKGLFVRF
Source text: as §1
(§2) The osmotic minipumps were inserted subcutaneously with a single surgical procedure: after clipping the fur from the dorsal area and cleaning the skin with antiseptic skin preparation, about 1 cm long incision was made on the dorsum of the animal, midway between both scappulae. The pump was placed along the axis of the body to one side of the backbone. The incision was positioned about 1-2 cm caudal to the estimated caudal end of the minipump when it is in place.
(§3) After two weeks of treatment the animals were sacrificed. From each rat, brain (half) and a part of liver were dissected and frozen. The intestine was excised about ½ cm below the stomach about 1-2 cm long, washed with sucrose 0.32 Molar and frozen at −70° C.
(§4) Tissue homogenates were pre incubated (37° C.) in the presence of clorgyline or deprenyl to inhibit the activity of MAO-A or MAO-B respectively. For MAO-B determination, samples were incubated for 20 minutes with C^14 PEA 10 μM and for MAO-A determination samples were incubated 30 minutes with C^14 −5HT 100 μM as substrate Termination of the reaction was done by acidification. The labeled metabolites were extracted into toluene:ethyl acetate, and counted in a β counter.

MAO-A = MAO-A (Rattus norvegicus, UniProt P21396); experiment: in vivo; details: for MAO-A activity, brain: oral, two weeks
Sequence of MAO-A (P21396 whole entry): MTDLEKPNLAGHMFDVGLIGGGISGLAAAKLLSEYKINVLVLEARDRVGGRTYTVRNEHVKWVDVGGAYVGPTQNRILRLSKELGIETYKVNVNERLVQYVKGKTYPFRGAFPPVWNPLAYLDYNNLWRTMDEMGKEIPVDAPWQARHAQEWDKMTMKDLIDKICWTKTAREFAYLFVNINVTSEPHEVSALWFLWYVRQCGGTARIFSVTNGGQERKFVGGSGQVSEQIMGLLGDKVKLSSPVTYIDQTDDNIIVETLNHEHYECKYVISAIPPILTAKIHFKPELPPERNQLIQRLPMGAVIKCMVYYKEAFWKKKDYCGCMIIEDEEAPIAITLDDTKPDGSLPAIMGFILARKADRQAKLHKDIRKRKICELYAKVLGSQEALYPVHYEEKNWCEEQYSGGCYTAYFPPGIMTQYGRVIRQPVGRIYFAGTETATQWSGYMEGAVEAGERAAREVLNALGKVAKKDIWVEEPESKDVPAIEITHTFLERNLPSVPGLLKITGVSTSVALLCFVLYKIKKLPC
Source text: as §1, §2, §3, §4

[2] = po, read-out: Percent of MAO-B inhibition, brain
[3] = po, read-out: Percent of MAO-B inhibition, intestine
[4] = po, read-out: Percent of MAO-B inhibition, liver
[5] = sc, read-out: Percent of MAO-B inhibition, brain
[6] = sc, read-out: Percent of MAO-B inhibition, intestine
[7] = sc, read-out: Percent of MAO-B inhibition, liver

weight gain ([1]; 0.8 mg/kg/day delivered by ALZET pumps, first to last day of two-week study): 1.3%
weight gain ([1]; all oral and ALZET pump groups except 0.8 mg/kg/day by ALZET pumps): 6-9%
MAOB inhibition in the brain, ALZET pumps versus oral group (MAO-B; brain): No change
MAO-B activity, brain (MAO-B; brain, oral, 0.02 mg/kg/day (salt)): 1586 dpm
MAO-B activity, brain (MAO-B; brain, oral, 0.05 mg/kg/day (salt)): 494 dpm
MAO-B activity, brain (MAO-B; brain, oral, 0.1 mg/kg/day (salt)): 181 dpm
MAO-B activity, brain (MAO-B; brain, oral, 0.2 mg/kg/day (salt)): 69 dpm
MAO-B activity, brain (MAO-B; brain, oral, 0.4 mg/kg/day (salt)): 34 dpm
MAO-B activity, brain (MAO-B; brain, oral, 0.8 mg/kg/day (salt)): 9 dpm
MAO-B activity, brain (MAO-B; brain, sc ALZET pumps, 0.02 mg/kg/day (salt)): 1229 dpm
MAO-B activity, brain (MAO-B; brain, sc ALZET pumps, 0.05 mg/kg/day (salt)): 346 dpm
MAO-B activity, brain (MAO-B; brain, sc ALZET pumps, 0.1 mg/kg/day (salt)): 198 dpm
MAO-B activity, brain (MAO-B; brain, sc ALZET pumps, 0.2 mg/kg/day (salt)): 75 dpm
MAO-B activity, brain (MAO-B; brain, sc ALZET pumps, 0.4 mg/kg/day (salt)): 38 dpm
MAOB inhibition in the intestine and liver, ALZET pumps compared with oral administration (MAO-B; intestine and liver, daily dose of up to 0.1 mg/kg): lower
maximal MAO-B inhibition in the intestine (MAO-B; intestine, both routes (oral, ALZET pumps)): about 85%
MAO-B activity, intestine (MAO-B; intestine, oral, 0.02 mg/kg/day (salt)): 3633 dpm
MAO-B activity, intestine (MAO-B; intestine, oral, 0.05 mg/kg/day (salt)): 3115 dpm
MAO-B activity, intestine (MAO-B; intestine, oral, 0.1 mg/kg/day (salt)): 2493 dpm
MAO-B activity, intestine (MAO-B; intestine, oral, 0.2 mg/kg/day (salt)): 2424 dpm
MAO-B activity, intestine (MAO-B; intestine, oral, 0.4 mg/kg/day (salt)): 2108 dpm
MAO-B activity, intestine (MAO-B; intestine, oral, 0.8 mg/kg/day (salt)): 2105 dpm
MAO-B activity, intestine (MAO-B; intestine, sc ALZET pumps, 0.02 mg/kg/day (salt)): 8265 dpm
MAO-B activity, intestine (MAO-B; intestine, sc ALZET pumps, 0.05 mg/kg/day (salt)): 4346 dpm
MAO-B activity, intestine (MAO-B; intestine, sc ALZET pumps, 0.1 mg/kg/day (salt)): 3225 dpm
MAO-B activity, intestine (MAO-B; intestine, sc ALZET pumps, 0.2 mg/kg/day (salt)): 2391 dpm
MAO-B activity, intestine (MAO-B; intestine, sc ALZET pumps, 0.4 mg/kg/day (salt)): 1852 dpm
MAO-B activity, intestine (MAO-B; intestine, sc ALZET pumps, 0.8 mg/kg/day (salt)): 1879 dpm
MAO-B activity, liver (MAO-B; oral, 0.02 mg/kg/day (salt)): 1127 dpm
MAO-B activity, liver (MAO-B; oral, 0.05 mg/kg/day (salt)): 511 dpm
MAO-B activity, liver (MAO-B; oral, 0.1 mg/kg/day (salt)): 224 dpm
MAO-B activity, liver (MAO-B; oral, 0.2 mg/kg/day (salt)): 136 dpm
MAO-B activity, liver (MAO-B; oral, 0.4 mg/kg/day (salt)): 38 dpm
MAO-B activity, liver (MAO-B; sc ALZET pumps, 0.02 mg/kg/day (salt)): 1974 dpm
MAO-B activity, liver (MAO-B; sc ALZET pumps, 0.05 mg/kg/day (salt)): 912 dpm
MAO-B activity, liver (MAO-B; sc ALZET pumps, 0.1 mg/kg/day (salt)): 486 dpm
MAO-B activity, liver (MAO-B; sc ALZET pumps, 0.2 mg/kg/day (salt)): 312 dpm
MAO-B activity, liver (MAO-B; sc ALZET pumps, 0.4 mg/kg/day (salt)): 181 dpm
MAO-B activity, liver (MAO-B; sc ALZET pumps, 0.8 mg/kg/day (salt)): 166 dpm
inhibition at 0.02 mg/kg/day (MAO-B; [2]): 83%
inhibition at 0.4 mg/kg/day (MAO-B; [2]): 100%
inhibition at 0.8 mg/kg/day (MAO-B; [2]): 100%
inhibition at 0.02 mg/kg/day (MAO-B; [3]): 74%
inhibition at 0.05 mg/kg/day (MAO-B; [3]): 78%
inhibition at 0.1 mg/kg/day (MAO-B; [3]): 82%
inhibition at 0.2 mg/kg/day (MAO-B; [3]): 83%
inhibition at 0.4 mg/kg/day (MAO-B; [3]): 85%
inhibition at 0.8 mg/kg/day (MAO-B; [3]): 85%
inhibition at 0.02 mg/kg/day (MAO-B; [4]): 83%
inhibition at 0.05 mg/kg/day (MAO-B; [4]): 92%
inhibition at 0.8 mg/kg/day (MAO-B; [4]): 100%
inhibition at 0.4 mg/kg/day (MAO-B; [5]): 100%
inhibition at 0.8 mg/kg/day (MAO-B; [5]): 100%
inhibition at 0.02 mg/kg/day (MAO-B; [6]): 37%
inhibition at 0.05 mg/kg/day (MAO-B; [6]): 67%
inhibition at 0.1 mg/kg/day (MAO-B; [6]): 76%
inhibition at 0.2 mg/kg/day (MAO-B; [6]): 82%
inhibition at 0.4 mg/kg/day (MAO-B; [6]): 86%
inhibition at 0.8 mg/kg/day (MAO-B; [6]): 86%
inhibition at 0.02 mg/kg/day (MAO-B; [7]): 67%
inhibition at 0.05 mg/kg/day (MAO-B; [7]): 85%
inhibition at 0.1 mg/kg/day (MAO-B; [7]): 92%
dose dependence of MAO-A inhibition (MAO-A; all tissues (intestine, brain, liver)): Dose Dependent
MAO-A inhibition in the brain, ALZET pumps compared with oral administration (MAO-A; brain): higher
MAO-A activity, brain (MAO-A; brain, 0.02 mg/kg/day (salt)): 3441 dpm
MAO-A activity, brain (MAO-A; brain, 0.05 mg/kg/day (salt)): 3031 dpm
MAO-A activity, brain (MAO-A; brain, 0.1 mg/kg/day (salt)): 2822 dpm
MAO-A activity, brain (MAO-A; brain, 0.2 mg/kg/day (salt)): 2319 dpm
MAO-A activity, brain (MAO-A; brain, 0.4 mg/kg/day (salt)): 1417 dpm
SMILES: C#CCN[C@@H]1CCc2ccccc21 [rasagiline, R(+)-N-propargyl-l-aminoindan]
